Measurements published in US20240398821A1, “FLAVONOID DERIVATIVES WITH GABAA RECEPTOR ACTIVITY AND METHODS OF USE” (RUTGERS, THE STATE UNIVERSITY OF NEW JERSEY, priority 2021, published 2024).

How the values were obtained:
GABAA receptor = assay: Preliminary classification of GABAAR modulation from electrophysiology against 4 GABAA subtypes; format: cell-based; conditions: from the four subtype results
From the text: As an assessment for potential anxiolytic activity, compounds were screened for in vitro GABAA receptor activity utilizing electrophysiology studies. This is a well-established method of assessing activity of GABAA receptor positive allosteric modulators (PAMs) with known anxiolytic activity. The link between anxiolytic and sedative activity associated with α1/2/3βγ GABAAR subtypes is also well-established by previous studies. and there is a well-established history of clinical efficacy, utility, and risks associated with the use of full GABAAR PAMs [i.e. benzodiazepines (BZDs)] in the treatment of anxiety and seizure disorders.
(§1) To evaluate GABAA receptor activity, compounds were evaluated with electrophysiology studies of against 4 GABAA subtypes (GABAA α1β2γ2L, α2θ3γ2L, α5θ3γ2L and α4θ3δ) in positive allosteric modulator (PAM) mode using the SyncroPatch automated platform at room temperature. A 6-point concentration-response curve of each test compound (10, 1, 0.1, 0.01, 0.001, or 0.0001 μM in DMSO). The rapid addition protocol was used, in which compound is rapidly applied and then washed off from the cell. 0.3% DMSO was used as negative control.
The fold increase is generated using the following equation, (Icomp/Icontrol)−1, where Icomp is the current amplitude in the presence of the compound and Icontrol is the current amplitude in the presence of agonist alone. This builds an EC50 concentration-response curve, where 0 represents no PAM activity and >0 represents PAM activity. If a “bell-shape curve” is observed at the higher concentrations, showing a reduction in activity in comparison to previous concentrations, then to allow for a more accurate curve fit, these concentrations are removed from the graphs where necessary and noted in the compound table. The % Emax relative to Allopregnanolone is generated using the following equation, • [(IMaxComp/IAveMaxCtrl)*100], where IMaxComp is the individual maximum fold increase in current for each compound and IAveMaxCtrl is the average maximum fold increase generated in the presence of the control, allopregnanolone.

GABAA α2θ3γ2L = molecular target: T1, GABAA α2θ3γ2L (Homo sapiens, UniProt P18507+P28472+P47869); assay: SyncroPatch automated patch-clamp electrophysiology, PAM mode; format: cell-based; conditions: for Potency, α2βy, *EC50 / EC50: PAM mode, GABA EC10-20, 6-point curve up to 10 μM, EC50 called extrapolated; for EC50: read-out: Potency, α2βy, *EC50; for Potency, α2βy, % in brackets: bracketed % beside EC50/IC50
T1 construct: expressed in transfected cells
T1 sequence (P47869 29-451): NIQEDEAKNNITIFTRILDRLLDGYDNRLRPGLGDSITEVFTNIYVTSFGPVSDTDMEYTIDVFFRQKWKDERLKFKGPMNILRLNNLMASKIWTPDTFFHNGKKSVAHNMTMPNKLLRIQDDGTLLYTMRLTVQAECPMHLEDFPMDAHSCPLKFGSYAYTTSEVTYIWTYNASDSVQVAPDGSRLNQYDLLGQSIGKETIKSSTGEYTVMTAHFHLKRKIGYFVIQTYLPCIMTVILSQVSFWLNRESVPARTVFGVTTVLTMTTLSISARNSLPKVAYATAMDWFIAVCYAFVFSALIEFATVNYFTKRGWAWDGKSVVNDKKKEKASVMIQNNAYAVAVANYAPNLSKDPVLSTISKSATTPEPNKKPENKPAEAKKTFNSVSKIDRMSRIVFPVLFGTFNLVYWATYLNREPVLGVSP
T1 sequence (P28472 26-473): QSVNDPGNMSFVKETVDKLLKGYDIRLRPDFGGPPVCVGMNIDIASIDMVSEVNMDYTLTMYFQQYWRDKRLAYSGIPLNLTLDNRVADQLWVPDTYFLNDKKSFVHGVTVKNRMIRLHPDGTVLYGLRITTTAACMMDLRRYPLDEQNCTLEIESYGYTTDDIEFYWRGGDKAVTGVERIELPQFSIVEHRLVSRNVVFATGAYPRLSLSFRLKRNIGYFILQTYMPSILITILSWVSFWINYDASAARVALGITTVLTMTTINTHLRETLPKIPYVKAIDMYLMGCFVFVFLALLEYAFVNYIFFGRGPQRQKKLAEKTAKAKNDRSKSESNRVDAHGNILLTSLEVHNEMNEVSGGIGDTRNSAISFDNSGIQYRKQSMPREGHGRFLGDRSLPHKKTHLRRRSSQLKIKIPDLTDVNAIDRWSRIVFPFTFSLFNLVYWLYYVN
T1 sequence (P18507 40-475): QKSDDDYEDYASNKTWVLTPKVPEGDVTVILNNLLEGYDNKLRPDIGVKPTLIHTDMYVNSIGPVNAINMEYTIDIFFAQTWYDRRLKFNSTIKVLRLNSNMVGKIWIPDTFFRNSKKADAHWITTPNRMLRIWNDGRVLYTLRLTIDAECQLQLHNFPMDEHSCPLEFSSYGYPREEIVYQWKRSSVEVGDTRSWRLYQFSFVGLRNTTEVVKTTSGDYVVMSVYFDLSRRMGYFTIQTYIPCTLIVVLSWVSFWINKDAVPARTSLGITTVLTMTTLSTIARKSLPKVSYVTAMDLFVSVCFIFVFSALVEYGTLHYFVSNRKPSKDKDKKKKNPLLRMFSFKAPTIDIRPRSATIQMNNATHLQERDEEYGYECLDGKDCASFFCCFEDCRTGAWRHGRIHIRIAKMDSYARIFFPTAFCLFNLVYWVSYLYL
Protocol: as §1
(§2) Test compounds: 6-point concentration-response curve of each test compound (10, 1, 0.1, 0.01, 0.001, 0.0001 μM in DMO).
(§3) Positive control: 5-point concentration-response curve of allopregnanolone ([…]).
(§4) Negative control: 0.3% DMSO
(§5) Each compound is tested across the plate with a single concentration per cell. A minimum of 2 wells are obtained per each concentration.
(§6) Powder stocks and DMSO stocks are stored at room temperature (in the dark). The powder stocks are diluted to 3 mM in 100% DMSO on the day of experiment.
(§7) SyncroPatch specific solutions are used throughout the assay. DMSO remains constant at 0.3% in the external solution throughout the assay.
(§8) The rapid addition protocol is used, in which compound is rapidly applied and then washed off from the cell. To test for PAM activity, the agonist GABA EC10-20 is applied three times (with wash steps in-between) as a control and to show activation reproducibility, followed by a 1 to 2 minute pre-incubation of client compound and then re-application of GABA EC10-20 in the presence of client compound. After a further wash step, maximum GABA (10 mM) is applied.
(§9) Automated patch clamp-recordings are performed using the SyncroPatch 384i. The voltage protocol generation and data collection are performed with PatchController384 V1.9.0 and Data Controller V1.9.0.
(§10) The fold increase is generated using the following equation, (Icomp/Icontrol)−1, where Icomp is the current amplitude in the presence of the compound and Icontrol is the current amplitude in the presence of agonist alone. This builds an EC50 concentration-response curve, where 0 represents no PAM activity and >0 represents PAM activity. […] The % Emax relative to Allopregnanolone is generated using the following equation, • [(IMaxComp/IAveMaxCtrl)*100], where IMaxComp is the individual maximum fold increase in current for each compound and IAveMaxCtrl is the average maximum fold increase generated in the presence of the control, allopregnanolone.
(§11) To test for PAM activity, the agonist GABA EC 10-20 was applied three times (with wash steps in-between) as a control and to show activation reproducibility, followed by a 1 to 2 minutes pre-incubation of client compound and then re-application of GABA EC 10-20 in the presence of client compound. After a further wash step, maximum GABA (10 mM) was applied. Allopregnanolone was utilized as a positive control. FIGS. 5A and 5B show for dose response of EC2-118 in comparison to that of allopregnanolone (positive control).

GABAA α5θ3γ2L = molecular target: T2, GABAA α5θ3γ2L (Homo sapiens, UniProt P18507+P28472+P31644); assay: as above; format: cell-based
T2 construct: expressed in transfected cells
T2 sequence (P31644 32-462): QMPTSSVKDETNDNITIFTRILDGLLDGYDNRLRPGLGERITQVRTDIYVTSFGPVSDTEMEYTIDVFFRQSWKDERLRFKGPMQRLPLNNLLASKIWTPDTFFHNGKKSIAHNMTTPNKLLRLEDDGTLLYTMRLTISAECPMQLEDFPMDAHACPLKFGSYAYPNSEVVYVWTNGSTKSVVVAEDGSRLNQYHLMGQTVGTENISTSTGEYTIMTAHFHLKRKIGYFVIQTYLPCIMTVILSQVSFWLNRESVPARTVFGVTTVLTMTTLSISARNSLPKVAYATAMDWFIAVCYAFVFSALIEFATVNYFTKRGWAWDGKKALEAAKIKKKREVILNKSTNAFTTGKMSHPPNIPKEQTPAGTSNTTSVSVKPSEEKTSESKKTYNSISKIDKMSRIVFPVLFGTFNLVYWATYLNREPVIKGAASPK
T2 sequence (P28472 26-473): as the sequence (P28472 26-473) above
T2 sequence (P18507 40-475): as the sequence (P18507 40-475) above
Protocol: as §1, §2, §3, §4, §5, §6, §7, §8, §9, §10, §11

GABAA α1β2γ2L = molecular target: T3, GABAA α1β2γ2L (Homo sapiens, UniProt P14867+P18507+P47870); assay: as above; format: cell-based; conditions: for Potency, α1βy, % in brackets: bracketed % beside EC50/IC50
T3 construct: expressed in transfected cells
T3 sequence (P14867 28-456): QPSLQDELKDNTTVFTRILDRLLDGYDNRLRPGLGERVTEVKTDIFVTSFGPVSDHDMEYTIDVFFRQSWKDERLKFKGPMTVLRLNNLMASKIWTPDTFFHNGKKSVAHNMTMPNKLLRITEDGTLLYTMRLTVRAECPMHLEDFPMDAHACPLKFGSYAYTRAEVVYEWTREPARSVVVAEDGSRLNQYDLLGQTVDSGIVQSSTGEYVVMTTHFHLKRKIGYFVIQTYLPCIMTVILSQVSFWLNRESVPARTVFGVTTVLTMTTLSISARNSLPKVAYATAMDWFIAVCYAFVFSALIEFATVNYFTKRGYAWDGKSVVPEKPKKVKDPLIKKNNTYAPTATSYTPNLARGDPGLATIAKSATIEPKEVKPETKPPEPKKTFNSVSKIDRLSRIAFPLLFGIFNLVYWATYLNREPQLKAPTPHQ
T3 sequence (P47870 25-512 limits assumed): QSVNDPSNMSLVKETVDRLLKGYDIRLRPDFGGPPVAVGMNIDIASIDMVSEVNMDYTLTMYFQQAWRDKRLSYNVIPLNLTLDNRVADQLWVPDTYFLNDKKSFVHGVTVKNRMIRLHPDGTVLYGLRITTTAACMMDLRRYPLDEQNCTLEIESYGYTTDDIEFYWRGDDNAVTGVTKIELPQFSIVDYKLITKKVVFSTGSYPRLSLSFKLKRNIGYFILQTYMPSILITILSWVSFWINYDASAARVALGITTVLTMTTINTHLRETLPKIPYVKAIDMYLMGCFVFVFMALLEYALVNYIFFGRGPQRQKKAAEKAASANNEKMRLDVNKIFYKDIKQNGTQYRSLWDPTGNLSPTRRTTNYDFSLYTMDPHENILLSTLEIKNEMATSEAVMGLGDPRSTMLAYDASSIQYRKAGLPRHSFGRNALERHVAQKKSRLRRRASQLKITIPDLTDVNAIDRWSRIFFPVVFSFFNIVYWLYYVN
T3 sequence (P18507 40-475): as the sequence (P18507 40-475) above
Protocol: as §1, with “A 6-point concentration-response curve of each test compound (10, 1, 0.1, 0.01, 0.001, or 0.0001 μM in DMSO).” left out
as §3, §4, §5, §6, §7
(§12) The rapid addition protocol is used, in which compound is rapidly applied and then washed off from the cell. […] After a further wash step, maximum GABA (10 mM) is applied.
(§13) The voltage protocol generation and data collection are performed with PatchController384 V1.9.0 and Data Controller V1.9.0.
as §10, with “alone.” for “alone. This builds an EC50 concentration-response curve, where 0 represents no PAM activity and >0 represents PAM activity.”
(§14) After a further wash step, maximum GABA (10 mM) was applied. Allopregnanolone was utilized as a positive control.

GABAA α4θ3δ = molecular target: T4, GABAA α4θ3δ (Homo sapiens, UniProt O14764+P28472+P48169); assay: as above; format: cell-based; conditions: for Potency, α4βδ (also printed α4βy), % in brackets: bracketed % beside EC50/IC50
T4 construct: expressed in transfected cells
T4 sequence (P48169 36-554): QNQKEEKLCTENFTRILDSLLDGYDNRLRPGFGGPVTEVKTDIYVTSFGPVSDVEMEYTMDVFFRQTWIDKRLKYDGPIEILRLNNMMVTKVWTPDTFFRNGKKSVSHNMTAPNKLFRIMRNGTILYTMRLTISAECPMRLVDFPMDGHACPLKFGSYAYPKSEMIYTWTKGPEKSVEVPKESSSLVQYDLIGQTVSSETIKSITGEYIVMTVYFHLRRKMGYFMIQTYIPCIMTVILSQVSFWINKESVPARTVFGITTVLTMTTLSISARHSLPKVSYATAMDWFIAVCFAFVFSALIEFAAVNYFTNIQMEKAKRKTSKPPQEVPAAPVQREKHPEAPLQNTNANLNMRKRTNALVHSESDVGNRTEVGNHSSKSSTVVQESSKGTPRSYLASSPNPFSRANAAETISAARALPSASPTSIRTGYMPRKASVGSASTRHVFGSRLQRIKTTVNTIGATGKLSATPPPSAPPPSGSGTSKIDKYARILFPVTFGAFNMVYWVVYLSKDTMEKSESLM
T4 sequence (P28472 26-473): as the sequence (P28472 26-473) above
T4 sequence (O14764 17-452 limits assumed): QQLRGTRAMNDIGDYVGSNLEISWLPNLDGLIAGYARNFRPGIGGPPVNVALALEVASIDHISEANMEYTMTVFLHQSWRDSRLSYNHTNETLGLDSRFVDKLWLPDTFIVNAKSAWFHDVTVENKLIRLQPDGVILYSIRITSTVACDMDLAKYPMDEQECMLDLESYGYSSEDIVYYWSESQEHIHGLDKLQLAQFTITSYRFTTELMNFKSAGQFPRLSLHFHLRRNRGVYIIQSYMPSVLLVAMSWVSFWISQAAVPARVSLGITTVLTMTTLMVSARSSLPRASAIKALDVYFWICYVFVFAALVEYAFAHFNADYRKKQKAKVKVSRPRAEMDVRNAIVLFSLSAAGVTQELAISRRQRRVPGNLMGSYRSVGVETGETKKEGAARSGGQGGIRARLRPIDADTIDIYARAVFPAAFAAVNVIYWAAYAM
Protocol: as §1, with “A 6-point concentration-response curve of each test compound (10, 1, 0.1, 0.01, 0.001, or 0.0001 μM in DMSO).” left out
as §3, §4, §5, §6, §7, §12, §13
as §10, with “alone.” for “alone. This builds an EC50 concentration-response curve, where 0 represents no PAM activity and >0 represents PAM activity.”
as §14

anxiety = assay: Open field test (OFT) and elevated plus maze (EPM), IP administration; format: in vivo, rats
Protocol: FIG. 7 is a representation of rat movements during an open field test. Increased time in the open arms signifies anti-anxiety activity. […] The purple lines represent the motion of the rat.
In vivo studies in rats were conducted in the Bello laboratory as preliminary screening for activity of EC2-118. Male and female rats were exposed to an open field test (OFT) and elevated plus maze (EPM) 7 days apart (Kshatriya et al., 2020). Each group (n=8/group, […]) received IP injection 30 min prior to IP dosing of EC2-118 or vehicle control. We performed OFT and EPM in 52 adult SD rats (26 male/26 female). The groups were as follow vehicle (0.9% Saline, 4% Tween 80, and 4% DMSO; n=9 males; n=10 females), 3.95 mg/kg (n=10 males; n=8 females), 12.5 mg/kg (n=7 males, females n=8).

loss-of-righting-reflex = assay: Loss-of-righting-reflex (LORR), alone and with alcohol; format: in vivo; conditions: rats
Protocol: Rats were given EC2-118 (3.95 mg/kg IP) and alcohol (3 g/kg) and assessed for duration of loss-of-righting-reflex (LORR). […] The effects of EC2-118 (12.5 mg/kg IP) on alcohol-induced LORR were not determined.

[1] = PAM mode, GABA EC10-20, 6-point curve up to 10 μM
[2] = PAM mode, GABA EC10-20, 6-point curve up to 10 μM, EC50 called extrapolated

EC50 (GABAA α5θ3γ2L; PAM mode, GABA EC10-20, 6-point curve up to 10 μM, read-out: Potency, α5βy, *EC50) | Potency, α5βy, % in brackets (GABAA α5θ3γ2L; bracketed % beside EC50/IC50) | EC50 (GABAA α2θ3γ2L) | Potency, α2βy, % in brackets (GABAA α2θ3γ2L) | EC50 (GABAA α4θ3δ; PAM mode, GABA EC10-20, 6-point curve up to 10 μM, read-out: Potency, α4βδ (also printed α4βy), *EC50) | Lethargy (observation) (anxiety; 12.5 mg/kg IP, rats) | Induction of LORR by compound alone (loss-of-righting-reflex; 3.95 mg/kg, 12.95 IP) | EC50 (GABAA α1β2γ2L; PAM mode, GABA EC10-20, 6-point curve up to 10 μM, EC50 called extrapolated, read-out: Potency, α1βy, *EC50) | Structure (SMILES) | Preliminary Classification of type of GABAAR modulation (GABAA receptor) | Potency, α2βy, *EC50 (GABAA α2θ3γ2L) | Potency, α5βy, *EC50 (GABAA α5θ3γ2L; [1]) | IC50 (GABAA α1β2γ2L) | Potency, α1βy, % in brackets (GABAA α1β2γ2L) | IC50 (GABAA α4θ3δ) | Potency, α4βδ (also printed α4βy), % in brackets (GABAA α4θ3δ) | Potency, α1βy, *EC50 (GABAA α1β2γ2L; [2]) | Potency, α4βδ (also printed α4βy), *EC50 (GABAA α4θ3δ; [1]) | Anxiolytic effect in OFT and EPM vs vehicle control (anxiety; 3.95 mg/kg IP, male and female SD rats, two-way ANOVA) | Effect in the open field test (OFT) (anxiety; 12.5 mg/kg IP, rats) | Impact on alcohol-induced LORR (duration) (loss-of-righting-reflex; 3.95 mg/kg IP with alcohol 3 g/kg)
– | – | – | – | – | – | – | – | O=c1cc(-c2cccc([N+](=O)[O-])c2)oc2ccc(Br)cc12 [6-bromo-3′-nitroflavone, reference compound] | Partial α1 NAM | N.R. | N.R. | 0.0059 µM | −21% | > 10 µM | −30% | – | – | – | – | –
1.92 µM | +22% | – | – | – | – | – | – | O=C1c2cc(Br)ccc2OC(c2ccccc2)C1(CO)CO (stereo not drawn) [EC2-52, 6-bromo-3,3-bis(hydroxymethyl)-2-phenylchroman-4-one] | Partial α5 GABAAR PAM | N.R. | – | – | – | – | – | N.R. | N.R. | – | – | –
– | – | 11.8 µM | +28% | > 10 µM | – | – | – | O=C1c2ccccc2OC(c2cccc([N+](=O)[O-])c2)C1(CO)CO (stereo not drawn) [EC2-104, 3,3-bis(hydroxymethyl)-2-(3-nitrophenyl)chroman-4-one] | Partial α2 GABAAR PAM | – | N.R. | – | – | – | +30% | N.R. | – | – | – | –
– | – | – | – | – | – | – | – | O=C1NC(c2cccc([N+](=O)[O-])c2)Nc2ccc(Br)cc21 (stereo not drawn) [EC2-117, 6-bromo-2-(3-nitrophenyl)-2,3-dihydroquinazolin-4(1H)-one] | Not active | α1 βy (N.R.) α2βy (N.R.) α5βy (N.R.) α4ßy (N.R.) | α1 βy (N.R.) α2βy (N.R.) α5βy (N.R.) α4ßy (N.R.) | – | – | – | – | α1 βy (N.R.) α2βy (N.R.) α5βy (N.R.) α4ßy (N.R.) | α1 βy (N.R.) α2βy (N.R.) α5βy (N.R.) α4ßy (N.R.) | – | – | –
– | – | 0.125 µM | +26% | – | increased lethargy | did not induce an LORR | 0.136 µM | O=C1NC(c2cccc([N+](=O)[O-])c2)Oc2ccc(Br)cc21 (stereo not drawn) [EC2-118, 6-bromo-2-(3-nitrophenyl)-2,3-dihydro-4H-benzo[e][1,3]oxazin-4-one] | Partial α1/2 GABAAR PAM | – | N.R. | – | +29% | – | – | – | N.R. | significant differences between 3.95 mg/kg dose and vehicle control | did not exhibit a significant effect | did not have a significant impact on alcohol-induced LORR
– | – | – | – | – | – | – | – | O=C1c2cc(Br)ccc2OC(c2cccc([N+](=O)[O-])c2)C1(CO)CO (stereo not drawn) [EC2-124] | Not Active | α1ßy (N.R.) α2βy (N.R.) α5βy (N.R.) α4βy (N.R.) | α1ßy (N.R.) α2βy (N.R.) α5βy (N.R.) α4βy (N.R.) | – | – | – | – | α1ßy (N.R.) α2βy (N.R.) α5βy (N.R.) α4βy (N.R.) | α1ßy (N.R.) α2βy (N.R.) α5βy (N.R.) α4βy (N.R.) | – | – | –
